Results on 3 molecules are retold here after US20160175324A1, “ANTI-ACNE COMPOSITIONS COMPRISING BILE ACID-FATTY ACID CONJUGATES” (GALDERM THERAPEUTICS LTD., priority 2013, published 2016).

One data set has as its system human skin fibroblasts. Kind of data set: Cholesterol efflux with [3H] cholesterol in fibroblasts. It is filed as cell-based. The following applies: 20 hours incubation, compared to untreated cells. The procedure: (§1) Steamchol was incubated with human skin fibroblasts for 20 hours to measure cholesterol loading in the presence of [^3H] cholesterol. After series of washing and adding efflux containing cholesterol acceptors, medium was collected and centrifuged and cell associated cholesterol was compared to effluxed cholesterol in the presence and absence of the similar FABAC. This research project also included quantification of mRNA of ABCA1 and direct measurement of ABCA1.
(§2) Similarly, cells were pre-incubated with […] cholesterol, washed four times and then placed in an incubation medium with or without Aramchol for 20 hours. Following the incubation, radioactivity was measured separately in the medium and in the cells. Cholesterol efflux percentage was calculated as radioactivity in medium divided by the total radioactivity (cells+medium).

For data set [1], the system named is ABCA1. Briefly: ABCA1 protein concentration in fibroblasts during cholesterol efflux. It is filed as cell-based, human. The conditions noted are these: efflux in the presence of FABAC, compared to untreated cells. The procedure:
as §1, §2

The test system of another data set is sebum production. The following applies: background statement; cited from earlier work.
The next data set deals with KRT1 (keratin 1). Kind of data set: Taqman gene expression in Epiderm FT skin culture, KRT1. It is filed as cell-based. The conditions noted are these: 0.5% (5000 μg/mL) in DMSO, 24 hours post-application, vs DMSO control. The procedure:
(§3) A full-thickness in vitro skin culture model, Epiderm FT (MatTek, MA), was treated with Steamchol. A non-cytotoxic concentration of Steamchol in DMSO (0.5%, 5000 μg/mL) was applied to the surface of each test culture and cells were collected 24 hours post-application. Control cells were similarly treated with DMSO without Steamchol. Tissues were collected in RNAlater for gene expression analysis. Gene expression was analyzed using validated Taqman gene expression assays in a Taqman Low Density Array (TLDA) format. 94 genes that regulate a variety of known functions in skin were analyzed, including the ABCA1 and SCD1 genes. The experimental set up was conducted in a 96-well format using validated Taqman gene expression assays. Each gene was assayed in duplicates. Statistics were carried out using the StatMiner software v4.2 (unpaired t-tests, p<0.05, N=4) to compare the 0.5% Steamchol group to the DMSO control group.
In general terms: In qPCR the cycle at which signal appears reflects the starting amount.

Data set [2] concerns Full-thickness Epiderm cultures (EFT-400, MatTek). Briefly: Cytotoxicity assay (MTT) after topical application to full-thickness skin cultures. The conditions noted are these: for Cell Viability: 24-hour exposure, MTT, vs untreated control. It is filed as cell-based. The procedure: Full-thickness Epiderm cultures (EFT-400, MatTek) were used to determine toxicity in response to topical application of a test material (Steamchol).
The test material was provided as a powder. Test solutions were prepared by adding the appropriate amount of powdered material to 1 mL DMSO. Lower concentrations were made by serial dilution with 100% DMSO. The final test material concentrations and treatments were: 2% Steamchol (20,000 ug/mL); 1% Steamchol (10,000 ug/mL); 0.1% Steamchol (1000 ug/mL); 0.01% Steamchol (100 ug/mL); vehicle control (100% DMSO); and untreated control.
Full-thickness skin cultures (EFT-400) were maintained according to MatTek protocol; the cultures were equilibrated at 37° C. and 5% CO2 for 24 hours prior to application of test materials. Test material was applied to the surface of each culture using sterile techniques (10 μL applied to each culture). Two cultures were assigned to each treatment group and the viability percentages presented below are averages of viability of each two cultures. Two EFT cultures served as an untreated control (also referred to as negative control in FIG. 2), and two other EFT cultures served as a positive control (100 μL 1% Triton X-100).
Following a 24-hour incubation period with the test material, cultures were processed for cell toxicity analysis using an MTT [(3-4,5-dimethylthiazole-2-yl) 2,5-diphenyltetrazoliumbromide] assay (reagents purchased from MatTek). Viable tissues converted MTT into a blue formazan salt that was detected by measuring absorbance at a specific wavelength of light (A570). Percent viability was calculated by comparing the A570 reading of the test cultures to the A570 of the untreated control culture, using the following formula: [Treated A570/Untreated A570]*100

For data set [3], the system named is ABCA1. Briefly: Taqman gene expression in Epiderm FT skin culture, ABCA1 mRNA. It is filed as cell-based. The following applies: 0.5% (5000 μg/mL) in DMSO, 24 hours post-application, vs DMSO control. How it is done: as §3
For another data set, the system named is KRT10 (keratin 10). Briefly: Taqman gene expression in Epiderm FT skin culture, KRT10. The data set is classed as cell-based. The conditions noted are these: 0.5% (5000 μg/mL) in DMSO, 24 hours post-application, vs DMSO control. How it is done:
as §3

Molecules are shown by their SMILES.

Consider `CCCCCCCCCCCCCCCCCCCC(=O)N[C@H]1CC[C@@]2(C)[C@@H](C1)C[C@@H](O)[C@@H]1[C@@H]2C[C@H](O)[C@]2(C)[C@@H]([C@H](C)CCC(=O)O)CC[C@@H]12` [Aramchol, 3β-arachidylamido-7α,12α, dihidroxy-5β-cholan-24-oic acid], for which, in the data set on human skin fibroblasts, the “Cholesterol efflux in fibroblasts” value is on record as “significantly enhanced”. Also, the “ABCA1 protein concentration increase” value in the data set on ABCA1 [1] is listed as “approximately 2 fold”.

As for `CC1=C(/C=C/C(C)=C/C=C/C(C)=C\C(=O)O)C(C)(C)CCC1` [Isotretinoin], the “Decrease of sebum production” value in the data set on sebum production is reported as “up to 90%”.

For `CCCCCCCCCCCCCCCCCC(=O)N[C@H]1CC[C@@]2(C)[C@@H](C1)C[C@@H](O)[C@@H]1[C@@H]2C[C@H](O)[C@]2(C)[C@@H]([C@H](C)CCC(=O)O)CC[C@@H]12` [Steamchol, 3β-stearylamido-7α,12α, dihidroxy-5β-cholan-24-oic acid], in the data set on KRT1 (keratin 1), the “Fold Change of keratin 1 gene expression” value was −2.49. The “Cell Viability” value in data set [2] (0.01% Steamchol (100 ug/mL) in DMSO) stood at 100.41%; in data set [2] (0.1% Steamchol (1000 ug/mL) in DMSO) it was 99.98%; in data set [2] (1% Steamchol (10,000 ug/mL) in DMSO), 96.88%; in data set [2] (2% Steamchol (20,000 ug/mL) in DMSO), 93.89%. Further, the “Toxicity in previous viability assay” value in data set [2] (40.0, 13.3, 4.4, 1.5 ug/mL, data not shown) was “no toxicity was observed”. Further, the “Cell viability compared to the untreated control” value in data set [2] (all dilutions tested (0.01%-2%), 24 hours) is given as around 100%. In the data set with human skin fibroblasts, the “Cholesterol efflux in fibroblasts” value was “significantly enhanced”. Moreover, the “Change in mRNA levels of ABCA1” value in the data set with ABCA1 [3] was “No significant change”. In the data set with ABCA1 [1], the “ABCA1 protein concentration increase” value is given as “approximately 2 fold”. Moreover, the “Fold Change of keratin 10 gene expression” value in the data set on KRT10 (keratin 10) is −2.60.
